Reference: patent WO2016087994A1, “Btk inhibitors to treat solid tumors through modulation of the tumor microenvironment” (dated 2016)
Entries after “also recorded” stand apart in the source; their conditions may differ. Like-named read-outs stand apart in the source and are kept apart here.

How the values were obtained:
BTK = biological target: T1, BTK (Mus musculus, UniProt P35991); assay: BTK occupancy in MDSCs of tumor bearing PDA mice; assay type: in vivo; settings: 15 mg/kg BID, Day 8, 4 hours post dose, N=5
T1 construct: MDSCs were purified from tumor bearing PDA mice; from tissue; host or cells: granulocytic and monocytic MDSCs from tumor-bearing PDA mice
T1 sequence (P35991 whole entry): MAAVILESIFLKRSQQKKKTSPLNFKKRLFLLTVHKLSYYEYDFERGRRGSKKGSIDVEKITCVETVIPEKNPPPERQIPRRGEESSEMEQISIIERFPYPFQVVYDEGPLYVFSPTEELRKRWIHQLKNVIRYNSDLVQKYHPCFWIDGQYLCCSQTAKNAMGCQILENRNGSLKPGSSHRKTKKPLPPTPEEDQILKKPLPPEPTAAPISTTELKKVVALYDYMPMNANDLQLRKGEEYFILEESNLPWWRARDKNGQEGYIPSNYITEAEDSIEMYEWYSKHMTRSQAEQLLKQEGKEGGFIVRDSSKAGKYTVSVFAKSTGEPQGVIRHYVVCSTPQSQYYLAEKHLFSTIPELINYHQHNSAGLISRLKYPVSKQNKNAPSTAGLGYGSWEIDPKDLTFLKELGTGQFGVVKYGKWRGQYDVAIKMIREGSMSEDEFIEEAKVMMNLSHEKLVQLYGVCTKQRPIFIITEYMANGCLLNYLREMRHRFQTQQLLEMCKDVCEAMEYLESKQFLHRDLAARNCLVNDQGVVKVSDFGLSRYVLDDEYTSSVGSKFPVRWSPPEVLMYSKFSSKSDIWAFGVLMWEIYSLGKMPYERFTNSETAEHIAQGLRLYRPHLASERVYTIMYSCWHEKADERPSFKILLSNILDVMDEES

[1] = Glutathione binding in vitro; assay type: in vitro ADME
[2] = Brain and CSF pharmacokinetics in Sprague-Dawley rats; assay type: in vivo; settings: rat
[3] = tested on: PBMC subsets (MDSC, NK cells); assay: Peripheral blood cell subsets in CLL patients by flow cytometry; assay type: in vivo, human; settings: C1D28, C2D28
[4] = Functional observation battery; assay type: in vivo, rats; settings: doses through 300 mg/kg
[5] = In vivo metabolism in plasma, bile and urine; set-up: species or system rats, dogs, and monkeys; settings: bile, urine, preliminary
CD8 + T cells [6] = assay: CD8+ T cell viability; assay type: cell-based; settings: higher concentrations of ibrutinib; any concentration of Formula (II)
[7] = tested on: EGF receptor phosphorylation (p-EGFR), A431 cells; assay: In vitro EGFR phosphorylation in A431 cells; assay type: cell-based, human; settings: 10 μM
[8] = tested on: NK cells with trastuzumab-coated HER18 breast cancer cells; assay: Trastuzumab-dependent NK cell degranulation (CD107a); assay type: cell-based, human; settings: trastuzumab-stimulated
relapsed/refractory CLL = assay: Clinical study of Formula (II) in relapsed/refractory CLL
primary CLL cells = assay: Rituximab ADCC, chromium release, primary CLL targets; assay type: cell-based, human; settings: 1 μM; NK cells from CLL patients, autologous CLL cells
CXCL12 and CCL2 = assay: Plasma chemokines in treated CLL patients; assay type: in vivo, human
KrasLA2 NSCLC tumors = assay: KrasLA2 genetic NSCLC model; assay type: in vivo, mouse
Itk kinase = biological target: T2, Itk kinase (Homo sapiens, UniProt Q08881); assay: Kinome screen, Itk; assay type: biochemical; settings: see Table 2 (missing)
T2 construct: Life Technologies (performed the screen, or the value is from the literature)
T2 sequence (Q08881 whole entry): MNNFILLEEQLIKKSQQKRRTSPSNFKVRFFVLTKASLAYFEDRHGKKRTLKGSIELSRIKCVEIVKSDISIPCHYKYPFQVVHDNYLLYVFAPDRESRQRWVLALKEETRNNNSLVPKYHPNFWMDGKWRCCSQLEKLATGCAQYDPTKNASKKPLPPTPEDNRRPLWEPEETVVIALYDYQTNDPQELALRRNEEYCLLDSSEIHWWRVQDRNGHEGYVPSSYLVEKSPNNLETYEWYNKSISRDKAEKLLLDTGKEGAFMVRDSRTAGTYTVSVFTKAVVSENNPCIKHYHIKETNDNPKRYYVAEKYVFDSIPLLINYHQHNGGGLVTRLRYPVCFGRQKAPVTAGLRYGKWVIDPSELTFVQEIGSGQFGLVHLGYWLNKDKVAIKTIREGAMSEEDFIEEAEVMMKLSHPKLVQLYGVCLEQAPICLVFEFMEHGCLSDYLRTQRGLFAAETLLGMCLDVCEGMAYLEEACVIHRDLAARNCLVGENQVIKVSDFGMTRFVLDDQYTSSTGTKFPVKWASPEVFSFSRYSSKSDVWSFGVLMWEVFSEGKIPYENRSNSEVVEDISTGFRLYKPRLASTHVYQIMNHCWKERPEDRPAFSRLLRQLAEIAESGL

apoptotic B-CLL = assay: Apoptosis of B-CLL cells in treated CLL patients; assay type: in vivo, human
[9] = tested on: B cell receptor (CD69 on CD19+ B cells); assay: Inhibition of BCR signaling (CD69) on B cells in whole blood; assay type: cell-based; settings: Homo sapiens, 18 h
A3 adenosine receptor = A3 adenosine receptor (Homo sapiens, UniProt P0DMS8)
Sequence of A3 adenosine receptor (P0DMS8 whole entry): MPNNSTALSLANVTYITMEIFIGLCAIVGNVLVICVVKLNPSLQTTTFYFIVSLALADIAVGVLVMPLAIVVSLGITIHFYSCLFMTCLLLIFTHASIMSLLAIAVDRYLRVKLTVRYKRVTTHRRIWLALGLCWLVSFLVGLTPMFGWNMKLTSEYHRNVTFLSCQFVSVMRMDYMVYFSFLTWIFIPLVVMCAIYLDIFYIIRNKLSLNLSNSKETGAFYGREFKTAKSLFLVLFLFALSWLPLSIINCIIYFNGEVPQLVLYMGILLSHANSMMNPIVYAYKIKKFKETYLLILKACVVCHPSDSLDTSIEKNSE

[10] = tested on: human platelet-mediated thrombosis; assay: In vivo human platelet thrombus formation after laser injury in VWF HA1 mice; set-up: species or system human platelets in VWF HA1 mice
[11] = Respiratory function study; assay type: in vivo, rats; settings: doses through 300 mg/kg
hepatocytes = assay: Metabolism in hepatocytes with 14C-labeled Formula (II); assay type: in vitro ADME, mouse, rat, dog, rabbit, monkey, and human
[12] = tested on: KrasG12D;Trp53R172H;Pdx1-Cre (KPC) derived pancreatic tumor; assay: Orthotopic pancreatic cancer model (KPC-derived cell line); assay type: in vivo, C57BL/6 mice; settings: oral 15 mg/kg
[13] = tested on: NK cells (CD56+/CD107a+) with MEC-1 cells; assay: Obinutuzumab-stimulated NK cell degranulation in whole blood; assay type: cell-based, human; settings: obinutuzumab 1 μg/mL; 0.1, 1, 10 μM
CYP3A4 = CYP3A4 (Homo sapiens, UniProt P08684); assay: CYP metabolism (loss of parent drug); assay type: in vitro ADME; settings: in vitro
Sequence of CYP3A4 (P08684 whole entry): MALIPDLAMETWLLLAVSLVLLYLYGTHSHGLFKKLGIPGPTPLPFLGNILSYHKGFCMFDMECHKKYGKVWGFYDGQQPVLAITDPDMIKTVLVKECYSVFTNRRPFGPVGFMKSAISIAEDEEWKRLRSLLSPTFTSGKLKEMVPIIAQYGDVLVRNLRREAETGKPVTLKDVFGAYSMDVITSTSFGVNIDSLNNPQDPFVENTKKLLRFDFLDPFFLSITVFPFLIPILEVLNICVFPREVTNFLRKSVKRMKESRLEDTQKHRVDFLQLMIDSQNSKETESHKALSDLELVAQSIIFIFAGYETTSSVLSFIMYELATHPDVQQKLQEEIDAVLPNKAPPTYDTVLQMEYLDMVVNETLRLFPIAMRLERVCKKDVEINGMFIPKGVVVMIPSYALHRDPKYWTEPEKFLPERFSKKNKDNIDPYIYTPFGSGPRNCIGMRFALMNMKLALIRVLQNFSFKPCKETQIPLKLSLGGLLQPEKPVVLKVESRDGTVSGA

ID8 ovarian cancer = assay: ID8 syngeneic orthotopic ovarian cancer model; assay type: in vivo, mouse; settings: 15 mg/kg/BID oral
[14] = Cardiovascular function study in telemeterized dogs; assay type: in vivo, male beagle dogs; settings: single doses through 30 mg/kg
[15] = tested on: KPC derived mouse pancreatic cancer cells; assay: KPC-derived mouse pancreatic cancer cells injected into pancreas, Formula (II) and/or gemcitabine; assay type: in vivo; settings: Formula (II) 15 mg/kg/BID oral; gemcitabine 15 mg/kg IV every 4 days x3
CD8 + T cells [16] = assay: CD8+ T cell IFN-γ levels; assay type: cell-based; settings: relative to vehicle
[17] = tested on: KPC pancreatic tumors (KRAS, p53); assay: KPC genetic pancreatic cancer model; assay type: in vivo, mouse
CD4 + T cells = assay: Th17 and Treg development of CD4+ T cells; assay type: cell-based
CYP enzymes = assay: Nonclinical CYP interaction studies; assay type: in vitro ADME
[18] = tested on: rituximab-coated Raji cells; assay: Rituximab ADCC, chromium release, Raji targets; assay type: cell-based, human; settings: 1 μM; healthy donor NK cells / Raji
[19] = tested on: NK cells with trastuzumab-coated HER18 breast cancer cells; assay: Trastuzumab-dependent NK cell IFN-γ secretion; assay type: cell-based, human; settings: trastuzumab-stimulated
[20] = tested on: GPVI platelet aggregation; assay: GPVI (convulxin-induced) human platelet aggregation; assay type: cell-based
[21] = tested on: NK cells with rituximab-coated DHL4 lymphoma cells; assay: Rituximab-dependent NK cell degranulation (CD107a); assay type: cell-based, human
[22] = tested on: CD8 + T cells with B lymphoblast targets; assay: Cytotoxic T cell (CTL) assay; assay type: cell-based; settings: 500 nM, relative to vehicle

## CC#CC(=O)N1CCC[C@H]1c1nc(-c2ccc(C(=O)Nc3ccccn3)cc2)c2c(N)nccn12 [Formula (II), (<S)-4-(8-amino-3-(l-(but-2-ynoyl)pyrrolidin-2-yl)imidazo[l,5-a]pyrazin-l-yl)-N-(pyridin-2-yl)benzamide]
BTK
  BTK occupancy in granulocytic and monocytic MDSC (in words): Complete BTK occupancy
[1]
  glutathione binding (in words): binds to glutathione but does not deplete glutathione
[2]; brain, flushed brains, 5 or 30 mg/kg/day oral gavage, 30 min after dosing, read-out: brain concentration relative to matched plasma
  Kp at 0.5 h: 0.03 to 0.04
[2]; csf, 5 and 30 mg/kg/day oral gavage, read-out: CSF concentration relative to plasma
  Kp at 0.5 h: 0.01 to 0.02
[2]; in vivo
  levels in brain and CSF (in words): crosses the blood-brain barrier; also recorded: low but detectable levels
[3]
  MDSC (monocytic) change vs ALC (in words): patients with decreasing ALC % had increasing MDSC (monocytic) %
  NK cell change vs ALC (in words): patients with decreasing ALC % had increasing NK cell %
[4]
  neurobehavioral effects / body temperature (in words): no adverse effects on neurobehavioral effects or body temperature
[5]
  metabolic processes in vivo (in words): oxidation, glutathione binding, and hydrolysis
CD8 + T cells [6]
  CD8+ T cell viability (in words): not observed
[7]; A431
  inhibition of EGFR phosphorylation (in words): no inhibition
[7]; 2 h, EGF 100 ng/mL 5 min
  EGF-induced p-EGFR inhibition: 7%
[8]
  NK cell degranulation (in words): no inhibitory effect
relapsed/refractory CLL; CLL, compared with ibrutinib
  time to same median % change in SPD: 7 months
relapsed/refractory CLL; FIG. 37
  SPD change vs ibrutinib (in words): decreases more rapidly
  absolute lymphocyte count (ALC) change vs ibrutinib (in words): much smaller relative increase and much faster decrease in absolute lymphocyte count (ALC)
relapsed/refractory CLL; human, in vivo
  adverse event grade (in words): only grade 1 AEs were observed
  disease progression in 17p deletion patients (in words): no 17p patients have progressed
  dose-limiting toxicities (in words): No DLTs were observed; also recorded: has not demonstrated any DLTs to date
  lymphocytosis (in words): A lack of lymphocytosis
  treatment-related serious adverse events (in words): No treatment-related serious adverse events (SAEs) were observed
Primary CLL cells
  inhibition of rituximab ADCC (in words): not inhibited
CXCL12 and CCL2
  CCL2 levels (in words): significant decrease
  CXCL12 levels (in words): significant decrease
KrasLA2 NSCLC tumors; 15 mg/kg
  number of tumors (in words): fewer overall tumors
  tumor volumes vs vehicle (in words): significant decrease in tumor volumes
KrasLA2 NSCLC tumors; mouse, in vivo
  MDSCs (in words): significant reduction in immunosuppressive tumor associated MDSCs
  TAMs (in words): significant reduction in immunosuppressive tumor associated TAMs
  Tregs (in words): significant reduction in immunosuppressive tumor associated Tregs
Itk kinase
  inhibition of Itk (in words): not a potent inhibitor of Itk kinase
Apoptotic B-CLL; cleaved PARP+, Caspase 3+, CD19+, CD5+
  samples with baseline change in apoptosis greater than 25%: 82 % of samples
Apoptotic B-CLL; human, in vivo
  apoptosis of B-CLL (in words): increased apoptotis
[9]
  EC50: 8.2 nM
A3 adenosine receptor
  activity in 80-target binding screen (in words): significant activity only against the A3 adenosine receptor
[10]
  effect on thrombus formation (in words): does not interfere with thrombus formation; also recorded: no significant effect on human platelet-mediated thrombus formation
[11]
  respiratory function (in words): no treatment-related adverse effects
hepatocytes
  metabolites in hepatocytes (in words): two mono-oxidized metabolites and a glutathione conjugate; also recorded: No unique human metabolite was identified
[12]
  immature myeloid infiltrate (in words): decreased immature myeloid infiltrate
  immunosuppressive tumor associated myeloid cells and Tregs (in words): reduce immunosuppressive tumor associated myeloid cells and Tregs
  number of Tregs (in words): reduced the number of immunospressive Tregs
  number of tumor associated macrophages (in words): reduced the number of tumor associated macrophages
  tumor burden (in words): significantly reduced tumor burden
[12]; vs vehicle
  tumor volume (in words): statistically significant reductions in tumor volume
[13]
  obinutuzumab-stimulated NK cell degranulation (in words): minimal effect
CYP3A4
  CYP metabolism (in words): metabolized by CYP3A4
ID8 ovarian cancer
  B cells (in words): significant reduction in total B cells; also recorded: significant reduction in immunosuppressive B cells
  B regulatory cells (Bregs) (in words): significant reduction in B regulatory cells (Bregs)
  CD8+ T cells (in words): increase in CD8 + T cells
  ID8 ovarian cancer growth (in words): impairs ID8 ovarian cancer growth
  tumor associated Tregs (in words): significant reduction in immunosuppressive tumor associated Tregs
  tumor-associated lymphocytes (in words): significant reduction in immunosuppressive tumor-associated lymphocytes
[14]
  cardiovascular/ECG/body temperature (in words): no meaningful changes in body temperature, cardiovascular, or electrocardiographic (ECG) (including QT interval) parameters
[15]
  reduction in tumor size (in words): efficacy alone
CD8 + T cells [16]
  CD8+ T cell function as IFN-γ level (in words): no effect on CD8 + T cell function
[17]; 15 mg/kg BID oral
  survival at day 14: 6/6
  survival at day 28: 5/6
[17]; 15 mg/kg BID oral, combination with gemcitabine 50 mg/kg IV
  tumor growth and survival (in words): substantially slowed pancreatic cancer growth and increased animal survival; also recorded: compared favorably with gemcitabine alone
[17]; 15 mg/kg BID oral, predose 165
  tumor volume, day 28, average: 272 mm3
[17]; tumor tissue
  CD8+ cells (in words): significant increase in CD8 + cells
  MDSCs (Gr1+Ly6CHi) (in words): significantly reduced
  TAMs (CD11b+Ly6ClowF4/80+Csf1r+) (in words): significantly reduced
  Tregs (CD4+CD25+FoxP3+) (in words): significantly reduced
CD4 + T cells
  Th17 development (in words): no adverse effects
  Treg development (in words): no adverse effects
CYP enzymes
  CYP drug-drug interaction potential (in words): very unlikely to cause clinical drug-drug interactions
[18]
  inhibition of rituximab ADCC (in words): not inhibited
[19]
  NK cell cytokine release (in words): no inhibitory effect
[20]
  inhibition of GPVI platelet aggregation (in words): does not
[20]; Homo sapiens, Platelet, read-out: IC50, GPVI platelet aggregation
  IC50: 1150 nM
[21]; rituximab-stimulated, 240 min
  reduction of NK cell degranulation: < 2%
[21]; rituximab, Formula (II) 1 μM
  NK cell degranulation (in words): did not inhibit
[22]
  CD8+ T cell function as % cytotoxicity (in words): no effect on CD8 + T cell function
